Here are results for 26 compounds from patent publication US10668067B2, “Pyridine sulfonamides” (AMGEN INC., priority 2016, dated 2020).

Usually IC50 stands for the point on the concentration scale where inhibition reaches its midpoint.

The target in the experiment is human Nav1.7 (Homo sapiens (Human), UniProt Q15858). Description: Nav 1.7 In Vitro PX Assay (PatchXpress whole cell voltage clamp). Particulars: in-vitro Nav 1.7 PX data. It is filed as cell-based. Summed up: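 HEK293 cells stably expressing human Nav1.7, automated whole-cell clamp at a holding potential giving 20–50% inactivation; 20 ms steps to −10 mV at 0.1 Hz. One concentration per cell for 3 min; peak current inhibition at end of exposure, 3–5 cells per concentration, IC50 fitted from % inhibition.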
Sequence of human Nav1.7 (Q15858 whole entry): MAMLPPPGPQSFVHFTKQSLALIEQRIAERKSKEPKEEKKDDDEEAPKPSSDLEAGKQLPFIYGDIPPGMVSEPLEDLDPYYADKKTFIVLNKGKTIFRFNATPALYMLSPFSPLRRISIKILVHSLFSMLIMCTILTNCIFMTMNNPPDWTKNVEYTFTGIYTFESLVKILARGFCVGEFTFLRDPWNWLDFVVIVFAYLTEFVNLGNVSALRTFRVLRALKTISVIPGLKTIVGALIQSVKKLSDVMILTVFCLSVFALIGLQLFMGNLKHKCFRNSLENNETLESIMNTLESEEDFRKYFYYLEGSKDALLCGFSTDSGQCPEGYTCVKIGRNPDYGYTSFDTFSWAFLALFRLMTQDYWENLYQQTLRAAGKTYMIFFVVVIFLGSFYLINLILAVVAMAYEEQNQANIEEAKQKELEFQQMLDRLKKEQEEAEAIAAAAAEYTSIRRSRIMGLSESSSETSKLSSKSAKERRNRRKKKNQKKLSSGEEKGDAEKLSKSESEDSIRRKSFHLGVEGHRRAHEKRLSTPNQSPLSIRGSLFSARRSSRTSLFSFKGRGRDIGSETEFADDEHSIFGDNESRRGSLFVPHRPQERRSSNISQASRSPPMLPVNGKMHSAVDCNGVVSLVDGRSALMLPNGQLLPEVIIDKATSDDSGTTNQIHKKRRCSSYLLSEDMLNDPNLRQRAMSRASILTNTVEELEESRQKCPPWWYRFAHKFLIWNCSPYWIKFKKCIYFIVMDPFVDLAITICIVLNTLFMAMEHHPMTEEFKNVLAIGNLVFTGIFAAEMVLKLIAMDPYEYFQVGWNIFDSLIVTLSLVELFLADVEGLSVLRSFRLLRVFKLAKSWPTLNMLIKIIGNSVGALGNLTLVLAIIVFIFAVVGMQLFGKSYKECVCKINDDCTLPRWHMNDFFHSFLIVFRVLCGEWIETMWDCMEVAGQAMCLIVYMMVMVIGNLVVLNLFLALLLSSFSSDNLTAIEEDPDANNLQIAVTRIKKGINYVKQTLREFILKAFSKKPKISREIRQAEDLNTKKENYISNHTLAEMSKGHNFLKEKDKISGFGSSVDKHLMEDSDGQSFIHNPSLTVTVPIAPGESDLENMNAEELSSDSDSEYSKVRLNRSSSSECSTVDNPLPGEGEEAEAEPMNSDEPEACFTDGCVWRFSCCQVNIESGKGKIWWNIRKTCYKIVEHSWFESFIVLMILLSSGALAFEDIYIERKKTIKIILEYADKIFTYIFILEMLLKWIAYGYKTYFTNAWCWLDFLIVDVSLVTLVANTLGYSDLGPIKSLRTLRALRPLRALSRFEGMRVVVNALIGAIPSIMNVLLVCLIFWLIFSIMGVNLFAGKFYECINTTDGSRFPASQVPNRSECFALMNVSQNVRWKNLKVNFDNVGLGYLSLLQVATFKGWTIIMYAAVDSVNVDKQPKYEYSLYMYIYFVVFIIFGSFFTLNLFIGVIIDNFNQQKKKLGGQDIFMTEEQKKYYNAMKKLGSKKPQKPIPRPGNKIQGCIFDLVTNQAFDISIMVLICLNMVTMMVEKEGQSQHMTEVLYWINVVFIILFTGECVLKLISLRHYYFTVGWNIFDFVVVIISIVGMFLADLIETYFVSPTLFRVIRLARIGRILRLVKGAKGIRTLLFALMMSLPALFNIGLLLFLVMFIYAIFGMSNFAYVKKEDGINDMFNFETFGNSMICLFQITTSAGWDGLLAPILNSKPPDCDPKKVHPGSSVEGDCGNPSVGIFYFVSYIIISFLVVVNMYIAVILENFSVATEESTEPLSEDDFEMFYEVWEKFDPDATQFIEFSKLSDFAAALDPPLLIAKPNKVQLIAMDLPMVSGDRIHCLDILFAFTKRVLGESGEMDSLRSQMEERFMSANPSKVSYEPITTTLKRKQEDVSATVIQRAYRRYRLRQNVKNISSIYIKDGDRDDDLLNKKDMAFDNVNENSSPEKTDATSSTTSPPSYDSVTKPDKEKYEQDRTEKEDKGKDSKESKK
Take `CNC(=O)N(c1ccc(S(=O)(=O)Nc2ncccn2)cn1)c1cc(F)c(-c2ccc(F)c(C(F)F)c2)cc1OC` [Example 2-2, 6-((3′-(difluoromethyl)-2,4′-difluoro-5-methoxy-4-biphenylyl)(methylcarbamoyl)amino)-N-2-pyrimidinyl-3-pyridinesulfonamide]: half-maximal inhibition (IC50) was put at 7 nM.
Then `CNC(=O)N(c1ccc(S(=O)(=O)Nc2ccon2)cn1)c1cc(F)c(-c2ccc(C)c(F)c2)cc1OC` [Example 1-15, 6-((2,3′-difluoro-5-methoxy-4′-methyl-4-biphenylyl)(methylcarbamoyl)amino)-N-3-isoxazolyl-3-pyridinesulfonamide], with 124 nM; and `CNC(=O)N(c1ccc(S(=O)(=O)Nc2ncccn2)cn1)c1cc(F)c(-c2ccc(Cl)c(Cl)c2)cc1OC` [Example 1-83, 6-((3′,4′-dichloro-2-fluoro-5-methoxy-4-biphenylyl)(methylcarbamoyl)amino)-N-2-pyrimidinyl-3-pyridinesulfonamide], with 32 nM.
In turn, `CNC(=O)N(c1ccc(S(=O)(=O)Nc2ccon2)cn1)c1cc(Cl)c(-c2cc(C(F)(F)F)ccc2F)cc1OC` [Example 1-55, 6-((2-chloro-2′-fluoro-5-methoxy-5′-(trifluoromethyl)-4-biphenylyl)(methylcarbamoyl)amino)-N-3-isoxazolyl-3-pyridinesulfonamide] showed an IC50 of 17 nM.
With `CNC(=O)N(c1ccc(S(=O)(=O)Nc2ccon2)cn1)c1cc(Cl)c(C2CC2)cc1OC` [Example 1-59, 6-((5-chloro-4-cyclopropyl-2-methoxyphenyl)(methylcarbamoyl)amino)-N-3-isoxazolyl-3-pyridinesulfonamide], the IC50 is 3020 nM.
With `CNC(=O)N(c1ccc(S(=O)(=O)Nc2ccon2)cn1)c1cc(F)c(-c2cc(OC)cc(C(F)(F)F)c2)cc1OC` [Example 1-9, 6-((2-fluoro-3′,5-dimethoxy-5′-(trifluoromethyl)-4-biphenylyl)(methylcarbamoyl)amino)-N-3-isoxazolyl-3-pyridinesulfonamide], the IC50 is 18 nM. This IC50 lies about 170-fold lower than the previous one.
Then `CNC(=O)N(c1ccc(S(=O)(=O)Nc2ccon2)cn1)c1cc(Cl)c(-c2cccc(OC(F)F)c2)cc1OC` [Example 1-47, 6-((2-chloro-3′-(difluoromethoxy)-5-methoxy-4-biphenylyl)(methylcarbamoyl)amino)-N-3-isoxazolyl-3-pyridinesulfonamide], with 72 nM.
As to `CNC(=O)N(c1ccc(S(=O)(=O)Nc2ccon2)cn1)c1cc(F)c(-c2cccc(OC(F)(F)F)c2)cc1OC` [Example 1-14, 6-((2-fluoro-5-methoxy-3′-(trifluoromethoxy)-4-biphenylyl)(methylcarbamoyl)amino)-N-3-isoxazolyl-3-pyridinesulfonamide], the half-inhibitory concentration (IC50) came out at 17 nM.
Then `CNC(=O)N(c1ccc(S(=O)(=O)Nc2cccnn2)cn1)c1cc(F)c(-c2cccc(C(F)(F)F)c2)cc1OC` [Example 1-3, 6-((2-fluoro-5-methoxy-3′-(trifluoromethyl)-4-biphenylyl)(methylcarbamoyl)amino)-N-3-pyridazinyl-3-pyridinesulfonamide], with 40 nM; and `CNC(=O)N(c1ccc(S(=O)(=O)Nc2ccon2)cn1)c1cc(Cl)c(-c2ccc(F)c(C)c2)cc1OC` [Example 1-28, 6-((2-chloro-4′-fluoro-5-methoxy-3′-methyl-4-biphenylyl)(methylcarbamoyl)amino)-N-3-isoxazolyl-3-pyridinesulfonamide], with 58 nM; and `CNC(=O)N(c1ccc(S(=O)(=O)Nc2ccon2)cn1)c1cc(Cl)c(-c2ccc(C(F)(F)F)c(OC)c2)cc1OC` [Example 1-46, 6-((2-chloro-3′,5-dimethoxy-4′-(trifluoromethyl)-4-biphenylyl)(methylcarbamoyl)amino)-N-3-isoxazolyl-3-pyridinesulfonamide], with 46 nM.
Take `CNC(=O)N(c1ccc(S(=O)(=O)Nc2ncccn2)cn1)c1cc(F)c(-c2ccc(Cl)c(C)c2)cc1OC` [Example 1-80, 6-((4′-chloro-2-fluoro-5-methoxy-3′-methyl-4-biphenylyl)(methylcarbamoyl)amino)-N-2-pyrimidinyl-3-pyridinesulfonamide]: the IC50 came to 39 nM.
Under `CNC(=O)N(c1ccc(S(=O)(=O)Nc2ccon2)cn1)c1cc(F)c(-c2cc(C)cc(Cl)c2)cc1OC` [Example 1-19, 6-((3′-chloro-2-fluoro-5-methoxy-5′-methyl-4-biphenylyl)(methylcarbamoyl)amino)-N-3-isoxazolyl-3-pyridinesulfonamide] stands 47 nM; under `CNC(=O)N(c1ccc(S(=O)(=O)Nc2ccon2)cn1)c1ccc(-c2ccc(F)c(C)c2)cc1OC` [Example 1-71, 6-((4′-fluoro-3-methoxy-3′-methyl-4-biphenylyl)(methylcarbamoyl)amino)-N-3-isoxazolyl-3-pyridinesulfonamide], 398 nM; under `CNC(=O)N(c1ccc(S(=O)(=O)Nc2ccon2)cn1)c1cc(F)c(-c2ccc(F)c(OC(F)(F)F)c2)cc1OC` [Example 1-27, 6-((2,4′-difluoro-5-methoxy-3′-(trifluoromethoxy)-4-biphenylyl)(methylcarbamoyl)amino)-N-3-isoxazolyl-3-pyridinesulfonamide], 20 nM.
The compound `CNC(=O)N(c1ccc(S(=O)(=O)Nc2cccnn2)cn1)c1cc(F)c(-c2ccc(Cl)c(C)c2)cc1OC` [Example 1-2, 6-((4′-chloro-2-fluoro-5-methoxy-3′-methyl-4-biphenylyl)(methylcarbamoyl)amino)-N-3-pyridazinyl-3-pyridinesulfonamide] displayed an IC50 of 106 nM.
With `CNC(=O)N(c1ccc(S(=O)(=O)Nc2cccc(F)n2)cn1)c1cc(Cl)c(-c2ccc(F)c(C(F)(F)F)c2)cc1OC` [Example 3-9, 6-((2-chloro-4′-fluoro-5-methoxy-3′-(trifluoromethyl)-4-biphenylyl)(methylcarbamoyl)amino)-N-(6-fluoro-2-pyridinyl)-3-pyridinesulfonamide], it took 53 nM to reach half-maximal inhibition (IC50).
Under `COC(=O)N(c1ccc(S(=O)(=O)Nc2ccon2)cn1)c1cc(Cl)c(-c2cccc(C(F)(F)F)c2)cc1OC` [Example 6, Methyl (2-chloro-5-methoxy-3′-(trifluoromethyl)-[1,1′-biphenyl]-4-yl)(5-(N-(isoxazol-3-yl)sulfamoyl)pyridine-2-yl)carbamate] stands 167 nM; under `CNC(=O)N(c1ccc(S(=O)(=O)Nc2cnsn2)cn1)c1cc(Cl)c(-c2ccc(F)c(OCC(F)(F)F)c2)cc1OC` [Example 3-2, 6-((2-chloro-4′-fluoro-5-methoxy-3′-(2,2,2-trifluoroethoxy)-4-biphenylyl)(methylcarbamoyl)amino)-N-1,2,5-thiadiazol-3-yl-3-pyridinesulfonamide], 31 nM; under `CNC(=O)N(c1ccc(S(=O)(=O)Nc2ccon2)cn1)c1cc(Cl)c(-c2cc(OC)c(F)c(OC)c2)cc1OC` [Example 1-66, 6-((2-chloro-4′-fluoro-3′,5,5′-trimethoxy-4-biphenylyl)(methylcarbamoyl)amino)-N-3-isoxazolyl-3-pyridinesulfonamide], 59 nM.
Under `CNC(=O)N(c1ccc(S(=O)(=O)Nc2ccon2)cn1)c1cc(F)c(-c2ccc(Cl)c(F)c2)cc1OC` [Example 1-20, 6-((4′-chloro-2,3′-difluoro-5-methoxy-4-biphenylyl)(methylcarbamoyl)amino)-N-3-isoxazolyl-3-pyridinesulfonamide] stands 50 nM; under `CNC(=O)N(c1ccc(S(=O)(=O)Nc2ccon2)cn1)c1ccc(-c2cc(Cl)cc(OC)c2)cc1OC` [Example 1-72, 6-((3′-chloro-3,5′-dimethoxy-4-biphenylyl)(methylcarbamoyl)amino)-N-3-isoxazolyl-3-pyridinesulfonamide], 101 nM; under `CNC(=O)N(c1ccc(S(=O)(=O)Nc2ccncn2)cn1)c1cc(Cl)c(-c2ccc(F)c(C(F)(F)F)c2)cc1OC` [Example 3-12, 6-((2-chloro-4′-fluoro-5-methoxy-3′-(trifluoromethyl)-4-biphenylyl)(methylcarbamoyl)amino)-N-4-pyrimidinyl-3-pyridinesulfonamide], 24 nM.
Then `CCOc1cc(-c2cc(OC)c(N(C(=O)NC)c3ccc(S(=O)(=O)Nc4ccon4)cn3)cc2Cl)ccc1F` [Example 1-67, 6-((2-chloro-3′-ethoxy-4′-fluoro-5-methoxy-4-biphenylyl)(methylcarbamoyl)amino)-N-3-isoxazolyl-3-pyridinesulfonamide], with 34 nM; and `CNC(=O)N(c1ccc(S(=O)(=O)Nc2ccon2)cn1)c1cc(Cl)c(-c2cc(OC)cc(OC(F)(F)F)c2)cc1OC` [Example 1-51, 6-((2-chloro-3′,5-dimethoxy-5′-(trifluoromethoxy)-4-biphenylyl)(methylcarbamoyl)amino)-N-3-isoxazolyl-3-pyridinesulfonamide], with 9 nM.
`CNC(=O)N(c1ccc(S(=O)(=O)Nc2ccon2)cn1)c1cc(Cl)c(-c2ccc(Cl)c(F)c2)cc1OC` [Example 1-63, 6-((2,4′-dichloro-3′-fluoro-5-methoxy-4-biphenylyl)(methylcarbamoyl)amino)-N-3-isoxazolyl-3-pyridinesulfonamide] gave an IC50 of 28 nM.
